Results from patent US6548555B1, “Basic drug compositions with enhanced bioavailability” (Pfizer Inc, priority 1999, dated 2003).

Experiments:
[1] = HPMCAS dispersions, dissolution tests at pH 4.0; cited from earlier work
[2] = Dissolution test by microcentrifuge method, Example 6; assay type: physicochemical; conditions: 37° C., 2.7 mg drug, 3.6 mg polymer or none, 1.8 mL
Protocol: Dissolution performance was measured at 37° C. using a microcentrifuge method. For these tests, 2.7 mg drug in 0.9 mLs 25% gastric solution/75% HPLC water was added to each of 6 microcentrifuge tubes. At time 0, 0.9mLs 2×PBS without polymer was added to tubes 1 and 2, and 0.9 mLs 2×PBS containing 3.6 mg HPMCAS-MF or cellulose acetate trimellitate (CAT) was added to tubes 3 and 4, or 5 and 6. Samples were taken after 4, 10, 20, 40, 90, and 180 minutes, analyzed by HPLC, and compound concentrations were calculated. Gastric solution is 84 mM HCl, 34 mM NaCl, pH 1.2. PBS is phosphate buffered saline: 20 mM sodium phosphate, 4.7 mM potassium phosphate, 8.2 mM NaCl, 0.2 mM KCl, pH 6.5. “2×PBS” is a solution in which the components of PBS are present at 2-fold higher concentration.

[3] = Solubility of the Example 6 drug at pH 2 and pH 6.8; assay type: physicochemical; conditions: thermodynamic from solid
Protocol: A test drug is dissolved in a pH 1-2 environment, typically aqueous deionized distilled water adjusted to a target pH within the aforesaid pH 1-2 range by adding an appropriate amount of hydrochloric acid. The amount of drug added is an amount sufficient to saturate the aqueous test medium. The test medium can be agitated, typically gently, by means of a stirring bar, overhead stirrer, or the like. Typically the test medium is left to sit (while being agitated) for several hours, typically overnight. The sample can then be filtered or centrifuged as previously described, and solubility in the filtrate or supernate can then be measured by determining the concentration with any suitable means of detection appropriate to the drug. Likewise, the solubility is also determined at pH 5 to 7. If the drug's pH 1-2 solubility is 3- or more-fold its pH 5-7 solubility, then the drug will benefit from this invention.

SMILES	supersaturated concentration relative to crystalline MAT [1]	Drug Conc ([2]; 4 min after adding 2xPBS to drug in 25% gastric solution)	Drug Conc ([2]; 10 min after adding 2xPBS to drug in 25% gastric solution)	Drug Conc ([2]; 20 min after adding 2xPBS to drug in 25% gastric solution)	Drug Conc ([2]; 40 min after adding 2xPBS to drug in 25% gastric solution)	Drug Conc ([2]; 90 min after adding 2xPBS to drug in 25% gastric solution)	Drug Conc ([2]; 180 min after adding 2xPBS to drug in 25% gastric solution)	solubility ([3]; deionized distilled water adjusted with hydrochloric acid, pH 2, simulated gastric fluid)	solubility ([3]; pH 6.8, aqueous buffer)
CCC1OC(=O)CC(O)C(C)C(OC2OC(C)C(OC3CC(C)(O)C(OC(=O)Cc4ccc(OC)cc4)C(C)O3)C(N(C)C)C2O)C(CC=O)CC(C)C(=O)C=CC(C)=CC1COC1OC(C)C(O)C(OC)C1OC (stereo not drawn) [MAT, 4″-O-(4-methoxyphenyl)acetyltylosin]	9 fold								
CN1CCN(c2ccccc2/C=C2\SCCN(c3ccc(Cl)c(Cl)c3)C2=O)CC1.Cl.O [Z-4-(3,4-dichlorophenyl)-2-[2-(4-methylpiperazin-1-yl)-benzylidene]-thiomorpholin-3-one hydrochloride monohydrate]		518 µg/mL	459 µg/mL	432 µg/mL	317 µg/mL	263 µg/mL	204 µg/mL	3000 µg/mL	12 µg/mL
